Measurements reported in ChEMBL document CHEMBL1126314, “A dideazatetrahydrofolate analogue lacking a chiral center at C-6, N-[4-[2-(2-amino-3,4-dihydro-4-oxo-7H-pyrrolo[2,3-d]pyrimidin-5-yl)ethyl]benzoyl]-L-glutamic acid, is an inhibitor of thymidylate synthase” (J Med Chem, 1992).

Tests used:
Thymidylate synthase = Thymidylate synthase (Mus musculus, UniProt P07607); test: Compound was evaluated for competitive inhibition of recombinant mouse thymidylate synthase
[1] = First-order rate constant of the compound; type: ADME
[2] = First-order rate constant was determined; type: ADME
L1210 = test: Compound was evaluated for the half-maximal inhibition against mouse L1210 leukemic cell growth; type: functional, cell-based
[3] = Km was determined; type: ADME
CCRF-CEM = test: Compound was evaluated for the half-maximal inhibition against human CCRF-CEM lymphoblastic leukemic cell growth; type: functional, cell-based

Chain of Thymidylate synthase (P07607 whole entry): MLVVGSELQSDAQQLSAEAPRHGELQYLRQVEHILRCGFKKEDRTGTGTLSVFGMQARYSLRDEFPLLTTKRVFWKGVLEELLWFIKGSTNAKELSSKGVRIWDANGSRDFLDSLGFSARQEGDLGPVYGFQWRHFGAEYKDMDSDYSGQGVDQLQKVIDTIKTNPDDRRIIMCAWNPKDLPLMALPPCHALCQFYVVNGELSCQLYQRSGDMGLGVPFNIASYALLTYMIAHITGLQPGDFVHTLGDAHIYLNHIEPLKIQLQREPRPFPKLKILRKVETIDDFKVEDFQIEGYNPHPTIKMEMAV

Row | SMILES | Ki (Thymidylate synthase) [nM] | Rate constant [1] | Rate constant [2] | IC50 (L1210) [nM] | Km [3] [µM] | IC50 (CCRF-CEM) [nM]
1 | Nc1nc(O)c2c(n1)NCC(CCc1ccc(C(=O)NC(CCC(=O)O)C(=O)O)cc1)C2 (centres undefined) | 30 | 32 | – | – | – | –
2 | Nc1nc(N)c2nc(CNc3ccc(C(=O)N[C@@H](CCC(=O)O)C(=O)O)cc3)cnc2n1 [AMINOPTERIN] | – | – | 10.1 | – | – | –
3 | CN(Cc1cnc2nc(N)nc(N)c2n1)c1ccc(C(=O)N[C@@H](CCC(=O)O)C(=O)O)cc1 [METHOTREXATE] | – | 0.9 | – | – | – | –
4 | Nc1nc2[nH]cc(CCc3ccc(C(=O)N[C@@H](CCC(=O)O)C(=O)O)cc3)c2c(=O)[nH]1 [PEMETREXED] | 340 | 400 | – | 22 | 0.8 | 16
